In patent US8377884B2, “Variants of C-type natriuretic peptides” (Biomarin Pharmaceutical Inc., priority 2007, dated 2013):
Like-named read-outs stand apart in the source and are kept apart here. Bridge positions count the residues as written; N and C are the ends. Square brackets hold non-standard residues; d marks the D form. Ends that are not written are not given here. Peptide text beside a SMILES is read from it. * marks the point of attachment. Phe(3,4-Cl2) = N[C@@H](Cc1ccc(Cl)c(Cl)c1)C(=O)O; Phe(3-Me) = Cc1cccc(C[C@H](N)C(=O)O)c1; PEO12 = monodispersed PEO, 0.6 kDa; PEO24 = monodispersed, 1.2 kDa; Heptanoyl = CCCCCCC(=O)*; Pentanoyl = CCCCC(=O)*

Experiments:
[1] = target: neutral endopeptidase (NEP) (Homo sapiens, UniProt P08473); experiment: In vitro neutral endopeptidase (NEP) cleavage assay; details: human, pH 7
Protocol: To determine the effects of amino acid substitutions, amino acid extensions, backbone modifications, side chain modifications and PEGylation on the susceptibility of CNP variants to neutral endopeptidase (NEP) cleavage, peptide cleavage assays were carried out using an in vitro assay that monitored disappearance of the non-cleaved CNP variant.
Recombinant human NEP (1 ug/mL final concentration) was added to 100 uM CNP variant diluted in 0.1 M Tris, pH 7. The reaction mixture was incubated at 37° C. for various periods of time, and the reaction was quenched with EDTA (10 mM final) followed by heat denaturation. The reaction mixture was reduced and then the reaction products were analyzed using HPLC and mass spectroscopy. The half-life of the CNP variant was calculated based on the disappearance of intact CNP variant over time.

[2] = target: T1, NPR-B (Mus musculus, UniProt Q6VVW5); experiment: Stimulation of cGMP production in NIH3T3 cells; assay type: cell-based, Murine; details: for cGMP response relative to 1 uM CNP22 (%) at 0.01 µM: read-out: cGMP Response rel. to 1 uM CNP22, 10 nM; for cGMP response relative to 1 uM CNP22 (%) at 1 µM: read-out: cGMP Response rel. to 1 uM CNP22, 1 uM
T1 construct: Murine NIH3T3 cells express endogenously the CNP signaling receptor, NPR-B; endogenous in cells; host or cells: NIH3T3 (murine fibroblasts)
T1 sequence (Q6VVW5 17-1047): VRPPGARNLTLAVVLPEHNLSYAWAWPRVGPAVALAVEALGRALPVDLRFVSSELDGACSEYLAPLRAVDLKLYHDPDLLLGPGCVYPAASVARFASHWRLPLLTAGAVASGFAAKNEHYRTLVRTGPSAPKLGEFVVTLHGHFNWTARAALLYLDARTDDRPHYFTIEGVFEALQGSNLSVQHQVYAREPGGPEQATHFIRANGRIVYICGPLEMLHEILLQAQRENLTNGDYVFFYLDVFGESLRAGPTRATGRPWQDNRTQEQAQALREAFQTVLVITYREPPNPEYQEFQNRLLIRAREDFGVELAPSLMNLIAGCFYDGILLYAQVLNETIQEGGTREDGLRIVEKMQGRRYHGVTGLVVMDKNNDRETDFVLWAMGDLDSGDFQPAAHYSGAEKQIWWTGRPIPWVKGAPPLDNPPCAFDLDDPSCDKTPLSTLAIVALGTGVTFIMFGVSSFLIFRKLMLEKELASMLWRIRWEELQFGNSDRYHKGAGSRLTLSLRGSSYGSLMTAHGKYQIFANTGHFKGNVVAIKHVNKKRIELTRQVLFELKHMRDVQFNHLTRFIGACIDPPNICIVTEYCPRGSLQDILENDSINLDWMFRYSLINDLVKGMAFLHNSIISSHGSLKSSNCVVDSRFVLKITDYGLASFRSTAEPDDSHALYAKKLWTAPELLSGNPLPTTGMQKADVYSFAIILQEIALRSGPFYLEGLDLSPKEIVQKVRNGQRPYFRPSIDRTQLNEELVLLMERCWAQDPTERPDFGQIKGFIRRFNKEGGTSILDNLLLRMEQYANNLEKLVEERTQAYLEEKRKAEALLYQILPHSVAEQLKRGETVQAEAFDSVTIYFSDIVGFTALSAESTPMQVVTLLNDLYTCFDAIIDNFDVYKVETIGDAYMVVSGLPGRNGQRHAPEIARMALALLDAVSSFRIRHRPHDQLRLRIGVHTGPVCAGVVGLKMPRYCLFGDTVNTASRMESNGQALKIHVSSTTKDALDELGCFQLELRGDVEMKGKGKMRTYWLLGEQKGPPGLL

[3] = recombinant human neutral endopeptidase (NEP)
[4] = NIH3T3 cells, 10 nM natriuretic peptide, normalized to cell number and cGMP production with 1 uM wtCNP22
[5] = NIH3T3 cells, 1 uM natriuretic peptide, normalized to cell number and cGMP production with 1 uM wtCNP22

neutral endopeptidase (NEP), sequence (P08473 whole entry): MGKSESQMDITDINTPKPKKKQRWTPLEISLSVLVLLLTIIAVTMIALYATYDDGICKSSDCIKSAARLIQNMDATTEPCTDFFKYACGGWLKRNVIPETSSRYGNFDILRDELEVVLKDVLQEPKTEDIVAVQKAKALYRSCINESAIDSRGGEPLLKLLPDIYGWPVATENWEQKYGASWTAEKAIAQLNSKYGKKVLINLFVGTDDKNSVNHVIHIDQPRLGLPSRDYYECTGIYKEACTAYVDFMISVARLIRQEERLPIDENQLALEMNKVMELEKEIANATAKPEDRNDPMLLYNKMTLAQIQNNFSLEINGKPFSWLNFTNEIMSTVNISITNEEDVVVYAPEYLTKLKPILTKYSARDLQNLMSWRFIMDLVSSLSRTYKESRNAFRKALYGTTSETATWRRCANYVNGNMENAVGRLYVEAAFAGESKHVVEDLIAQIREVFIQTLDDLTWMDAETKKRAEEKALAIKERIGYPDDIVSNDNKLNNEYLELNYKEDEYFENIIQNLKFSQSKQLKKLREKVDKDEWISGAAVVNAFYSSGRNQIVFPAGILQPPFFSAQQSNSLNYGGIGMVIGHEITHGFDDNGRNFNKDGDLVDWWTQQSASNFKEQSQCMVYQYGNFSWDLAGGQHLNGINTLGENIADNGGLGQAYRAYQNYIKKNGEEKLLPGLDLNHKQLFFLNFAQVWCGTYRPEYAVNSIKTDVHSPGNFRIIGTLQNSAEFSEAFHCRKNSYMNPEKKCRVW

`CCCCC(=O)N[C@@H](CCC(=O)O)C(=O)N[C@@H](CC(C)C)C(=O)N[C@@H](CO)C(=O)N[C@@H](CCC(=O)O)C(=O)NCC(=O)N[C@H]1CSSC[C@@H](C(=O)O)NC(=O)CNC(=O)[C@H](CC(C)C)NC(=O)CNC(=O)[C@H](CO)NC(=O)[C@H](CCSC)NC(=O)[C@H](CO)NC(=O)CNC(=O)[C@H]([C@@H](C)CC)NC(=O)[C@H](CCCNC(=N)N)NC(=O)[C@H](CC(=O)O)NC(=O)[C@H](CC(C)C)NC(=O)[C@H](CCCCN)NC(=O)[C@H](CC(C)C)NC(=O)CNC(=O)[C@H](Cc2ccccc2)NC1=O` [AV] (Pentanoyl-ELSEGCFGLKLDRIGSMSGLGC-OH; disulfide 6-22 (inferred); C-terminus assumed) gave a half-life at 100 uM [1, 3] of 2 h.

Work on `CCCCCCC(=O)N[C@@H](CCC(=O)O)C(=O)N[C@@H](CC(C)C)C(=O)N[C@@H](CO)C(=O)N[C@@H](CCC(=O)O)C(=O)NCC(=O)N[C@H]1CSSC[C@@H](C(=O)O)NC(=O)CNC(=O)[C@H](CC(C)C)NC(=O)CNC(=O)[C@H](CO)NC(=O)[C@H](CCSC)NC(=O)[C@H](CO)NC(=O)CNC(=O)[C@H]([C@@H](C)CC)NC(=O)[C@H](CCCNC(=N)N)NC(=O)[C@H](CC(=O)O)NC(=O)[C@H](CC(C)C)NC(=O)[C@H](CCCCN)NC(=O)[C@H](CC(C)C)NC(=O)CNC(=O)[C@H](Cc2ccccc2)NC1=O` [AW] (Heptanoyl-ELSEGCFGLKLDRIGSMSGLGC-OH; disulfide 6-22; C-terminus assumed) yielded a half-life at 100 uM [1] of under 0.333 h.

Work on `CC[C@H](C)[C@@H]1NC(=O)[C@H](CCCNC(=N)N)NC(=O)[C@H](CC(=O)O)NC(=O)[C@H](CC(C)C)NC(=O)[C@H](CCCCN)NC(=O)[C@H](CC(C)C)NC(=O)CNC(=O)[C@H](Cc2ccccc2)NC(=O)[C@@H](NC(=O)CNC(=O)[C@H](CCCCN)NC(=O)[C@H](CO)NC(=O)[C@H](CC(C)C)NC(=O)CNC(=O)[C@H](CCC(N)=O)NC(=O)[C@H](CCC(N)=O)NC(=O)[C@H](CC(N)=O)NC(=O)[C@H](C)NC(=O)CNC(=O)[C@H](CCCCN)NC(=O)[C@H](Cc2ccc(O)cc2)NC(=O)[C@H](CCCCN)NC(=O)[C@H](CCCNC(=N)N)NC(=O)[C@H](C)NC(=O)[C@H](CC(N)=O)NC(=O)[C@@H]2CCCN2C(=O)[C@H](Cc2c[nH]cn2)NC(=O)[C@H](CCC(=O)O)NC(=O)[C@H](CCC(N)=O)NC(=O)CN)CSSC[C@@H](C(=O)O)NC(=O)CNC(=O)[C@H](CC(C)C)NC(=O)CNC(=O)[C@H](CO)NC(=O)[C@H](CCSC)NC(=O)[C@H](CO)NC(=O)CNC1=O` [CU] (H-GQEHPNARKYKGANQQGLSKGCFGLKLDRIGSMSGLGC-OH; disulfide 22-38 (inferred); N-terminus and C-terminus assumed) yielded a cGMP response relative to 1 uM CNP22 (%) at 0.01 µM [2, 4] of 9% and a cGMP response relative to 1 uM CNP22 (%) at 1 µM [2, 5] of 57%.

Work on `CC[C@H](C)[C@@H]1NC(=O)[C@H](CCCNC(=N)N)NC(=O)[C@H](CC(=O)O)NC(=O)[C@H](CC(C)C)NC(=O)[C@H](CCCCN)NC(=O)[C@H](CC(C)C)NC(=O)CNC(=O)[C@@H](Cc2ccccc2)NC(=O)[C@@H](NC(=O)CNC(=O)[C@H](CCCCN)NC(=O)[C@H](CO)NC(=O)[C@H](CC(C)C)NC(=O)CN)CSSC[C@@H](C(=O)O)NC(=O)CNC(=O)[C@H](CC(C)C)NC(=O)CNC(=O)[C@H](CO)NC(=O)[C@H](CCSC)NC(=O)[C@H](CO)NC(=O)CNC1=O` [E] yielded a cGMP response relative to 1 uM CNP22 (%) at 0.01 µM ([2]; NIH3T3, […]) of 2% and a cGMP response relative to 1 uM CNP22 (%) at 1 µM ([2]; NIH3T3, […]) of 6%.

`CC[C@H](C)[C@@H]1NC(=O)[C@H](CCCNC(=N)N)NC(=O)[C@H](CC(=O)O)NC(=O)[C@H](CC(C)C)NC(=O)[C@H](CCCCN)NC(=O)[C@H](CC(C)C)N(C)C(=O)CNC(=O)[C@H](Cc2ccccc2)NC[C@@H](NC(=O)CNC(=O)[C@H](CCCCN)NC(=O)[C@H](CO)NC(=O)[C@H](CC(C)C)NC(=O)CN)CSSC[C@@H](C(=O)O)NC(=O)CNC(=O)[C@H](CC(C)C)N(C)C(=O)CNC(=O)[C@H](CO)NC(=O)[C@H](CCSC)NC(=O)[C@H](CO)NC(=O)CNC1=O` [J] gave a half-life at 100 uM [1] of 0.833 h.

`CC[C@H](C)[C@@H]1NC(=O)[C@H](CCCNC(=N)N)NC(=O)[C@H](CC(=O)O)NC(=O)[C@H](CC(C)C)NC(=O)[C@H](CCCCN)NC(=O)[C@H](CC(C)C)NC(=O)CNC(=O)[C@H](Cc2ccc(Cl)c(Cl)c2)NC(=O)[C@@H](NC(=O)CNC(=O)CNC(=O)[C@H](CO)NC(=O)[C@H](CC(C)C)NC(=O)CN)CSSC[C@@H](C(=O)O)NC(=O)CNC(=O)[C@H](CC(C)C)NC(=O)CNC(=O)[C@H](CO)NC(=O)[C@H](CCSC)NC(=O)[C@H](CO)NC(=O)CNC1=O` [V] (H-GLSGGC[Phe(3,4-Cl2)]GLKLDRIGSMSGLGC-OH; disulfide 6-22) gave a half-life at 100 uM [1, 3] of 1.13 h.

For `CC[C@H](C)[C@@H]1NC(=O)[C@H](CCCNC(=N)N)NC(=O)[C@H](CC(=O)O)NC(=O)[C@H](CC(C)C)NC(=O)[C@H](CCCCN)NC(=O)[C@H](CC(C)C)NC(=O)CNC(=O)[C@H](Cc2cccc(C)c2)NC(=O)[C@@H](NC(=O)CNC(=O)CNC(=O)[C@H](CO)NC(=O)[C@H](CC(C)C)NC(=O)CN)CSSC[C@@H](C(=O)O)NC(=O)CNC(=O)[C@H](CC(C)C)NC(=O)CNC(=O)[C@H](CO)NC(=O)[C@H](CCSC)NC(=O)[C@H](CO)NC(=O)CNC1=O` [X] (H-GLSGGC[Phe(3-Me)]GLKLDRIGSMSGLGC-OH; disulfide 6-22), the half-life at 100 uM [1, 3] was 1.13 h.

Work on `CC[C@H](C)[C@@H]1NC(=O)[C@H](CCCNC(=N)N)NC(=O)[C@H](CC(=O)O)NC(=O)[C@H](CC(C)C)NC(=O)[C@H](CCCCN)NC(=O)[C@H](CC(C)C)NC(=O)CNC(=O)[C@H](Cc2ccc(O)cc2)NC(=O)[C@@H](NC(=O)CNC(=O)[C@H](CCCNC(=N)N)NC(=O)[C@H](CO)NC(=O)[C@H](CC(C)C)NC(=O)CN)CSSC[C@@H](C(=O)O)NC(=O)CNC(=O)[C@H](CC(C)C)NC(=O)CNC(=O)[C@H](CO)NC(=O)[C@H](CCSC)NC(=O)[C@H](CO)NC(=O)CNC1=O` [Z] (H-GLSRGCYGLKLDRIGSMSGLGC-OH; disulfide 6-22 (inferred); N-terminus and C-terminus assumed) yielded a cGMP response relative to 1 uM CNP22 (%) at 0.01 µM [2, 4] of 2% and a cGMP response relative to 1 uM CNP22 (%) at 1 µM [2, 5] of 18%.

For “PEO12-CNP22, K4R: CNP22, K4R conjugated at the N-terminus to PEO12 (PEO12-GLSRGCFGLKLDRIGSMSGLGC; disulfide 6-22 (inferred); UniProt P23582 105-126, looked up, variant K4R)”, the “cGMP Response rel. to 1 uM CNP22, 10 nM” value [2, 4] was 13 and the “cGMP Response rel. to 1 uM CNP22, 1 uM” value [2, 5] was 44.

With “PEO24-CNP22, K4R: CNP22, K4R conjugated at the N-terminus to PEO24 (PEO24-GLSRGCFGLKLDRIGSMSGLGC; disulfide 6-22 (inferred); UniProt P23582 105-126, looked up, variant K4R)” the “cGMP Response rel. to 1 uM CNP22, 10 nM” value [2, 4] was 15 and the “cGMP Response rel. to 1 uM CNP22, 1 uM” value [2, 5] was 56.

“PEO24-R-CNP22, K4R: R-CNP22, K4R conjugated at the N-terminus to PEO24 (PEO24-RGLSRGCFGLKLDRIGSMSGLGC; disulfide 7-23 (inferred))” was tested, and the “cGMP Response rel. to 1 uM CNP22, 10 nM” value [2, 4] was 15 ± 2 and the “cGMP Response rel. to 1 uM CNP22, 1 uM” value [2, 5] was 75 ± 12.
